According to US11628198B2, “Methods for prevention and treatment of acute renal injury” (Cornell University, priority 2008, dated 2023):

Legend:
[1] = test system: CIN in glycerol-induced rhabdomyolysis animal model; test: CIN in glycerol-induced rhabdomyolysis model, Experiment 3; type: in vivo, rat
Procedure: SD rats with body weight of 300-400 grams were dehydrated for 24 h followed by i.m. injection with 25% glycerol solution (v/v) at the dose of 10 ml/kg. Twenty-four hours (24 h) later, the rats were grouped and subjected to contrast induced nephropathy study protocol. Eighteen SD rats with body weight of 350-400 g were randomized into three groups with the doses, dosing schedules and study protocol presented in FIG. 27. The effects of SS-31 on ARI can be examined by comparing the renal functions in animals from group A with that from group B.
Renal function: Renal function was assessed by determining serum and urinary creatinine using Jiancheng Cr kit (Nanjing, P.R.C) at baseline, 24 h after dehydration and 48 h post the contrast dye administration. The creatinine clearance was calculated based on the Scr, Ucr and Urinary volume. Urinary protein concentration was determined by Bradford Protein Assay kit (Sigma, U.S.A.). Samples were analyzed by students t-test and differences were considered significant at p<0.05.

[2] = test system: contrast induced nephropathy in diabetic animal model; test: CIN in diabetic (HFD/STZ) rats with iohexol, Experiment 1; type: in vivo, rat
Procedure: Animal model: Impaired renal function caused by diabetes is one of the major predisposing factors for contrast induced nephropathy (McCullough, P et al., J. Am. College of Cardiology, 2008, 51, 1419-1428). In this experiment, a total of 57 SD rats were fed with high fat diet for 6 weeks, followed by the injection with low dose streptozotocin (30 mg/kg). After 9 more weeks, the blood glucose, scrum creatinine and Cystatin C was measured. Based on the following selection criteria: Scr>250 μM, Cystatin C>750 ng/ml and blood glucose>=[…], 20 rats were selected to proceed with the contrast induced nephropathy study.
The animals were divided into 2 groups. Group 1 rats were fed administered iohexol and SS-31; Group 2 rats were administered iohexol and a control vehicle. On day 1, serum samples were collected from the rats in each group and total protein in urine was measured using a Bradford assay. On days 2 and 3, 3 mg/kg SS-31 (Group 1) or a vehicle (Group 2) was administered s.c. 30 min prior to the dye injection (6 mL/kg i.v. tail vein). SS-31 (Group 1) or PBS (Group 2) administration was repeated at both 2 h and 24 h post-dye administration. Serum and urine samples were collected at days 4 and 5. The rats were euthaniszed on day 5 to harvest kidneys and vital organs. Samples were analyzed by students t-test and differences were considered significant at p<0.05.
Renal function: Renal function was assessed by determining serum and urinary creatinine using Jiancheng Cr kit (Nanjing, P.R.C) at baseline, 48 h and 72 h following dye administration. The creatinine clearance was calculated based on the Scr, Ucr and Urinary volume. Urinary protein concentration was determined by Bradford Protein Assay kit (Sigma, St. Louis, Mo.). The Cystatin C was measured Westang Rat Cystatin C kit (Shanghai, P.R.C.)

D-Arg-2′6′Dmt-Lys-Phe-NH2 [SS-31]
PAS staining of kidney ([1]; glycerin, dye): intact brush borders, normal glomeruli and minimum protein cast in the tubular cells
urine protein level over time ([1]; vs vehicle group): recovered faster than the vehicle group
Cystatin C ([2]; Baseline): 708.6 ± 51.3 ng/mL
GFR ([2]; Baseline): 140.0 ± 11.1 μl/min/100 g
Scr ([2]; Baseline): 305.7 ± 15.1 µmol/L
U protein ([2]; Baseline): 4.83 ± 1.03 mg/4 h
U vol ([2]; Baseline): 15.4 ± 2.6 mL
Ucr ([2]; Baseline): 3187.0 ± 196.9 µmol/L
Cystatin C ([2]; T1 (48 h post dye)): 1008.1 ± 46.4 ng/mL
GFR ([2]; T1 (48 h post dye)): 149.3 ± 15.6 μl/min/100 g
Scr ([2]; T1 (48 h post dye)): 285.4 ± 12.0 µmol/L
U protein ([2]; T1 (48 h post dye)): 4.71 ± 0.60 mg/4 h
U vol ([2]; T1 (48 h post dye)): 17.4 ± 1.6 mL
Ucr ([2]; T1 (48 h post dye)): 2816 ± 163.6 µmol/L
Cystatin C ([2]; T2 (72 h post dye)): 1303.6 ± 147.1 ng/mL
GFR ([2]; T2 (72 h post dye)): 162.7 ± 18.7 μl/min/100 g
Scr ([2]; T2 (72 h post dye)): 295.7 ± 20.6 µmol/L
U protein ([2]; T2 (72 h post dye)): 3.59 ± 1.0 mg/4 h
U vol ([2]; T2 (72 h post dye)): 20.5 ± 2.3 mL
Ucr ([2]; T2 (72 h post dye)): 2675.4 ± 100.8 µmol/L
